{"source": "patent US20190192699A1", "about": "“NUCLEAR IMAGING AND RADIOTHERAPEUTICS AGENTS TARGETING CARBONIC ANHYDRASE IX AND USES THEREOF” (THE JOHNS HOPKINS UNIVERSITY, priority 2016, published 2019)", "test_system": "SK-RC-52 xenografts", "experiment": "Biodistribution of [64Cu]XYIMSR-06", "assay_type": "in vivo, mice", "method": "Cell Lines and Mouse Models. Animal experiments were performed in accordance with protocols approved by the Johns Hopkins Animal Care and Use Committee (ACUC). Six-week-old female NOD/SCID mice were purchased from the Animal Resource Core of the Sidney Kimmel Comprehensive Cancer Center of Johns Hopkins and were subcutaneously injected in the lower left flank or upper right flank with 1×10^6 SK-RC-52 cells in RPMI 1640 GlutaMAX™ media (Life Technologies, Frederick, Md.) supplemented with 1% fetal bovine serum (FBS). Mice were monitored for tumor size and used for SPECT/CT imaging when the size of the tumor reached 100 mm^3.\nBiodistribution of [^64Cu]XYIMSR-06. Mice bearing SK-RC-52 xenografts within the upper right flank were injected intravenously with 740 kBq (20 μCi) of [^64Cu]XYIMSR-06 in 200 μL of PBS. For in vivo competition (binding specificity) studies, tumor-bearing mice were injected with 740 kBq (20 μCi) of [^64Cu]XYIMSR-06 and 200 nmole of 1 in 200 μL of PBS concurrently. At specific times after injection (1 h, 4 h, 8 h and 24 h), mice (n=5) were sacrificed by cervical dislocation with blood immediately collected by cardiac puncture. Heart, lungs, pancreas, spleen, fat, brain, muscle, small intestines, liver, stomach, kidney, urinary bladder, and tumor were also collected. Each organ was weighed and the tissue radioactivity was measured with an automated gamma counter (1282 Compugamma CS, Pharmacia/LKBNuclear, Inc., Mt. Waverly, Vic. Australia). The percentage of injected dose per gram of tissue (% ID/g) was calculated by comparison with samples of a standard dilution of the initial dose. All measurements were corrected for radioactive decay. Data were expressed as mean±standard deviation (SD). Prism software (GraphPAD, San Diego, Calif.) was used to determine statistical significance. Statistical significance was calculated using a paired t test. P-values […] were considered significant.", "key": {"[1]": {"conditions": "8 h + block (200 nmole of 1 co-injected)"}}, "note": "Several values for one entry are separate records, joined by “and”; a condition that tells them apart may be missing. Equal values may be shown once."}
{"smiles": "CC(CCC(=O)N[C@@H](CC(=O)N[C@@H](CC(=O)N[C@@H](CCCCn1cc(CCCC(=O)Nc2nnc(S(N)(=O)=O)s2)nn1)C(=O)NCCOCCOCCNC(=S)Nc1ccc(CC2CN(CC(=O)[O-])CCN(CC(=O)[O-])CCN2CC(=O)O)cc1)C(=O)O)C(=O)O)(c1ccc(O)cc1)c1ccc(O)cc1.[64Cu+2]", "note": "(some centres unmarked) [[^64Cu]XYIMSR-06]", "values": [{"measurement": "Biodistribution: Bladder", "setting": "1 h post-injection", "value": "11.12 ± 6.33", "unit": "% ID/g"}, {"measurement": "Biodistribution: Blood", "setting": "1 h post-injection", "value": "0.66 ± 0.05", "unit": "% ID/g"}, {"measurement": "Biodistribution: Brain", "setting": "1 h post-injection", "value": "1.46 ± 2.23", "unit": "% ID/g"}, {"measurement": "Biodistribution: Fat", "setting": "1 h post-injection", "value": "0.80 ± 0.17", "unit": "% ID/g"}, {"measurement": "Biodistribution: Heart", "setting": "1 h post-injection", "value": "3.41 ± 0.79", "unit": "% ID/g"}, {"measurement": "Biodistribution: Kidney (kid)", "setting": "1 h post-injection", "value": "33.65 ± 3.91", "unit": "% ID/g"}, {"measurement": "Biodistribution: Liver", "setting": "1 h post-injection", "value": "3.25 ± 0.97", "unit": "% ID/g"}, {"measurement": "Biodistribution: Lung", "setting": "1 h post-injection", "value": "25.52 ± 3.35", "unit": "% ID/g"}, {"measurement": "Biodistribution: Muscle (mm)", "setting": "1 h post-injection", "value": "1.28 ± 0.27", "unit": "% ID/g"}, {"measurement": "Biodistribution: Pancreas", "setting": "1 h post-injection", "value": "2.94 ± 0.24", "unit": "% ID/g"}, {"measurement": "Biodistribution: Sm. intestine", "setting": "1 h post-injection", "value": "7.35 ± 0.78", "unit": "% ID/g"}, {"measurement": "Biodistribution: Spleen", "setting": "1 h post-injection", "value": "0.36 ± 0.08", "unit": "% ID/g"}, {"measurement": "Biodistribution: Stomach", "setting": "1 h post-injection", "value": "14.80 ± 2.27", "unit": "% ID/g"}, {"measurement": "Biodistribution: Tumor", "setting": "1 h post-injection", "value": "14.5 % ID/g and 14.47 ± 2.69 % ID/g"}, {"measurement": "Tumor/kid (kidney) ratio", "setting": "1 h post-injection", "value": "0.4 ± 0.1"}, {"measurement": "Tumor/mm (muscle) ratio", "setting": "1 h post-injection", "value": "10.8 ± 3.7"}, {"measurement": "Biodistribution: Bladder", "setting": "4 h post-injection", "value": "17.05 ± 8.86", "unit": "% ID/g"}, {"measurement": "Biodistribution: Blood", "setting": "4 h post-injection", "value": "0.33 ± 0.06", "unit": "% ID/g"}, {"measurement": "Biodistribution: Brain", "setting": "4 h post-injection", "value": "0.29 ± 0.06", "unit": "% ID/g"}, {"measurement": "Biodistribution: Fat", "setting": "4 h post-injection", "value": "0.52 ± 0.29", "unit": "% ID/g"}, {"measurement": "Biodistribution: Heart", "setting": "4 h post-injection", "value": "1.78 ± 0.33", "unit": "% ID/g"}, {"measurement": "Biodistribution: Kidney (kid)", "setting": "4 h post-injection", "value": "19.99 ± 2.88", "unit": "% ID/g"}, {"measurement": "Biodistribution: Liver", "setting": "4 h post-injection", "value": "2.18 ± 0.57", "unit": "% ID/g"}, {"measurement": "Biodistribution: Lung", "setting": "4 h post-injection", "value": "12.03 ± 1.61", "unit": "% ID/g"}, {"measurement": "Biodistribution: Muscle (mm)", "setting": "4 h post-injection", "value": "0.70 ± 0.18", "unit": "% ID/g"}, {"measurement": "Biodistribution: Pancreas", "setting": "4 h post-injection", "value": "1.36 ± 0.19", "unit": "% ID/g"}, {"measurement": "Biodistribution: Sm. intestine", "setting": "4 h post-injection", "value": "4.15 ± 0.69", "unit": "% ID/g"}, {"measurement": "Biodistribution: Spleen", "setting": "4 h post-injection", "value": "0.24 ± 0.04", "unit": "% ID/g"}, {"measurement": "Biodistribution: Stomach", "setting": "4 h post-injection", "value": "8.19 ± 0.97", "unit": "% ID/g"}, {"measurement": "Biodistribution: Tumor", "setting": "4 h post-injection", "value": "19.3 % ID/g and 19.31 ± 4.51 % ID/g"}, {"measurement": "Tumor/Blood ratio", "setting": "4 h post-injection", "value": "57.7 ± 9.3"}, {"measurement": "Tumor/kid (kidney) ratio", "setting": "4 h post-injection", "value": "1.0 ± 0.1"}, {"measurement": "Tumor/mm (muscle) ratio", "setting": "4 h post-injection", "value": "29.4 ± 9.9"}, {"measurement": "Biodistribution: Bladder", "setting": "[1]", "value": "1.45 ± 1.53", "unit": "% ID/g"}, {"measurement": "Biodistribution: Blood", "setting": "[1]", "value": "0.08 ± 0.01", "unit": "% ID/g"}, {"measurement": "Biodistribution: Brain", "setting": "[1]", "value": "0.04 ± 0.01", "unit": "% ID/g"}, {"measurement": "Biodistribution: Fat", "setting": "[1]", "value": "0.05 ± 0.01", "unit": "% ID/g"}, {"measurement": "Biodistribution: Heart", "setting": "[1]", "value": "0.16 ± 0.03", "unit": "% ID/g"}, {"measurement": "Biodistribution: Kidney (kid)", "setting": "[1]", "value": "1.82 ± 0.39", "unit": "% ID/g"}, {"measurement": "Biodistribution: Liver", "setting": "[1]", "value": "0.55 ± 0.08", "unit": "% ID/g"}, {"measurement": "Biodistribution: Lung", "setting": "[1]", "value": "0.77 ± 0.14", "unit": "% ID/g"}, {"measurement": "Biodistribution: Muscle (mm)", "setting": "[1]", "value": "0.05 ± 0.02", "unit": "% ID/g"}, {"measurement": "Biodistribution: Pancreas", "setting": "[1]", "value": "0.14 ± 0.03", "unit": "% ID/g"}, {"measurement": "Biodistribution: Sm. intestine", "setting": "[1]", "value": "0.38 ± 0.06", "unit": "% ID/g"}, {"measurement": "Biodistribution: Spleen", "setting": "[1]", "value": "0.14 ± 0.02", "unit": "% ID/g"}, {"measurement": "Biodistribution: Stomach", "setting": "[1]", "value": "0.69 ± 0.18", "unit": "% ID/g"}, {"measurement": "Biodistribution: Tumor", "setting": "[1]", "value": "2.39 ± 0.24", "unit": "% ID/g"}, {"measurement": "Tumor/Blood ratio", "setting": "[1]", "value": "32.0 ± 3.8"}, {"measurement": "Tumor/kid (kidney) ratio", "setting": "[1]", "value": "1.3 ± 10.2"}, {"measurement": "Tumor/mm (muscle) ratio", "setting": "[1]", "value": "53.0 ± 12.6"}, {"measurement": "Biodistribution: Bladder", "setting": "8 h post-injection", "value": "7.43 ± 7.72", "unit": "% ID/g"}, {"measurement": "Biodistribution: Blood", "setting": "8 h post-injection", "value": "0.13 ± 0.02", "unit": "% ID/g"}, {"measurement": "Biodistribution: Brain", "setting": "8 h post-injection", "value": "0.24 ± 0.06", "unit": "% ID/g"}]}
